Measured values from US10774064B2 (Cadent Therapeutics, Inc., priority 2016, dated 2020).

The molecules below were run against T1, small-conductance Ca2+-activated K+ channels (SK channels, subtype 2) (Homo sapiens, UniProt Q9H2S1) (assay: whole-cell patch-clamp of ionic current through SK2 channels in HEK293 cells (SC100)). Settings: concentration that increases the basal current by 100%; HEK293 cells expressing SK2 channels.
T1 construct: expressed in transfected cells; host or cells: HEK293
Assay type: cell-based
Procedure, shortened: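 SC100, the concentration doubling basal current (a 100% increase), was taken from SK2 currents recorded by whole-cell patch-clamp in SK2-expressing HEK293 cells.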
With `FCc1ccn(-c2nc(NC3CCC(F)(F)CC3)cc(OC3CC(F)(F)C3)n2)n1` [Compound 347, 6-(3,3-difluorocyclobutoxy)-N-(4,4-difluorocyclohexyl)-2-(3-(fluoromethyl)-1H-pyrazol-1-yl)pyrimidin-4-amine] the SC100 was “++ (++ means 200 nM-1000 nM)”.
In the case of `Cc1ccn(-c2nc(NC3CCC(F)(F)CC3)cc(OC3CN(C(=O)OC(C)(C)C)C3)n2)n1` [Compound 151, tert-butyl 3-((6-((4,4-difluorocyclohexyl)amino)-2-(3-methyl-1H-pyrazol-1-yl)pyrimidin-4-yl)oxy)azetidine-1-carboxylate], the SC100 is reported as “++ (++ means 200 nM-1000 nM)”.
`Cc1cc(C)n(-c2nc(NC3CCC(F)(F)CC3)cc(OC(F)F)n2)n1` [Compound 209, N-(4,4-difluorocyclohexyl)-6-(difluoromethoxy)-2-(3,5-dimethyl-1H-pyrazol-1-yl)pyrimidin-4-amine] was tested, and the SC100 was “+ (+ means >1 uM)”.
`Cc1cc(C)n(-c2nc(NC3CCC(F)(F)C3)cc(C(N)=O)n2)n1` (stereo not drawn) [Compound 183, 6-((3,3-difluorocyclopentyl)amino)-2-(3,5-dimethyl-1H-pyrazol-1-yl)pyrimidine-4-carboxamide] was tested, and the SC100 was “+ (+ means >1 uM)”.
In the case of `Cc1cc(C)n(-c2nc(NC3CCC(F)(F)CC3)cc(OCc3ncn(C)n3)n2)n1` [Compound 272], the SC100 is reported as “+ (+ means >1 uM)”.
For `O=C1CCCN1Cc1cc(NC2CCC(F)(F)CC2)nc(-n2ccc(CF)n2)n1` [Compound 321, 1-((6-((4,4-difluorocyclohexyl)amino)-2-(3-(fluoromethyl)-1H-pyrazol-1-yl)pyrimidin-4-yl)methyl)pyrrolidin-2-one], the SC100 was “+ (+ means >1 uM)”.
With `CC(=O)N1CCN(c2cc(NC3CCC(F)(F)CC3)nc(-n3nc(C)cc3C)c2)CC1` [Compound 134, 1-(4-(2-((4,4-difluorocyclohexyl)amino)-6-(3,5-dimethyl-1H-pyrazol-1-yl)pyridin-4-yl)piperazin-1-yl)ethan-1-one] the SC100 was “++ (++ means 200 nM-1000 nM)”.
`Cc1cc(C)n(-c2nc(NC3CCC(F)(F)CC3)cc(C(N)=O)n2)n1` [Compound 131, 6-((4,4-difluorocyclohexyl)amino)-2-(3,5-dimethyl-1H-pyrazol-1-yl)pyrimidine-4-carboxamide] was tested, and the SC100 was “+ (+ means >1 uM)”.
For `Cc1cc(C)n(-c2nc(NC3CCC(F)(F)CC3)cc(N3CCOC(C(C)(C)O)C3)n2)n1` (stereo not drawn) [Compound 227, 2-(4-(6-((4,4-difluorocyclohexyl)amino)-2-(3,5-dimethyl-1H-pyrazol-1-yl)pyrimidin-4-yl)morpholin-2-yl)propan-2-ol], the SC100 was “++ (++ means 200 nM-1000 nM)”.
For `Cc1cc(C)n(-c2nc(NCc3cnn(C)n3)cc(NC3CCC(F)(F)CC3)n2)n1` [Compound 235, N4-(4,4-difluorocyclohexyl)-2-(3,5-dimethyl-1H-pyrazol-1-yl)-N6-((2-methyl-2H-1,2,3-triazol-4-yl)methyl)pyrimidine-4,6-diamine], the SC100 was “++ (++ means 200 nM-1000 nM)”.
`Cc1cc(C)n(-c2nc(N[C@H]3CCCC(F)(F)C3)cc([C@@H](C)O)n2)n1` (single isomer, unassigned) [Compound 354] was tested, and the SC100 was “+ (+ means >1 uM)”.
For `COc1ccc(CNc2cc(NC3CCC(F)(F)CC3)nc(-n3nc(C)cc3C)c2)cc1` [Compound 264, N2-(4,4-difluorocyclohexyl)-6-(3,5-dimethyl-1H-pyrazol-1-yl)-N4-(4-methoxybenzyl)pyridine-2,4-diamine], the SC100 was “++ (++ means 200 nM-1000 nM)”.
`FC(F)c1csc(-c2nc(NC3CCC(F)(F)CC3)cc(N3CCOCC3)n2)n1` [Compound 339, N-(4,4-difluorocyclohexyl)-2-(4-(difluoromethyl)thiazol-2-yl)-6-morpholinopyrimidin-4-amine] was tested, and the SC100 was “++ (++ means 200 nM-1000 nM)”.
For `Cc1cc(NC2CCC(F)(F)CC2)nc(-n2nc(C3CC3)cc2C)n1` [Compound 221, 2-(3-cyclopropyl-5-methyl-1H-pyrazol-1-yl)-N-(4,4-difluorocyclohexyl)-6-methylpyrimidin-4-amine], the SC100 was “+ (+ means >1 uM)”.

Same assay, conditions: whole-cell patch-clamp, HEK293 cells expressing SK2 channels; concentration that increases the basal current by 100%
`Cc1ccn(-c2cc(CN(C)C)nc(NC3CCC(F)(F)CC3)n2)n1` [NSSy6783, N-(4,4-difluorocyclohexyl)-4-((dimethylamino)methyl)-6-(3-methyl-1H-pyrazol-1-yl)pyrimidin-2-amine] was tested, and the “SC100 (μM)” value was “++ (++ means 200 nM-1000 nM)”.
For `Cc1ccn(-c2nc(N[C@H]3C[C@@H]4CC[C@H]3O4)cc(N3CCOCC3)n2)n1` [NSSy6446], the “SC100 (μM)” value was “+ (+ means >1 uM)”.
In the case of `COc1cnc(-c2nc(C)cs2)nc1NC1CCC(F)(F)CC1` [IN11125-014-P1, N-(4,4-difluorocyclohexyl)-5-methoxy-2-(4-methylthiazol-2-yl)pyrimidin-4-amine], the “SC100 (μM)” value is reported as “++ (++ means 200 nM-1000 nM)”.
In the case of `CC(=O)N(C)Cc1cc(NC2CCC(F)(F)CC2)nc(-c2nc(C)cs2)c1` [IN11133-068-P1], the “SC100 (μM)” value is reported as “++ (++ means 200 nM-1000 nM)”.
For `Cc1ccn(-c2cc(CN3CCOC3=O)cc(NC3CCC(F)(F)CC3)n2)n1` [IN10991-091-P1], the “SC100 (μM)” value was “++ (++ means 200 nM-1000 nM)”.
In the case of `Cc1csc(-c2cc(S(C)(=O)=O)cc(NC3CCC(F)(F)CC3)n2)n1` [IN11147-036-P1, N-(4,4-difluorocyclohexyl)-4-(methylsulfonyl)-6-(4-methylthiazol-2-yl)pyridin-2-amine], the “SC100 (μM)” value is reported as “+++ (+++ means <200 nM)”.
With `CC(=O)c1cc(NC2CCC(F)(F)CC2)nc(-c2nc(C)cs2)n1` [IN11030-054-P1, 1-(6-((4,4-difluorocyclohexyl)amino)-2-(4-methylthiazol-2-yl)pyrimidin-4-yl) ethan-1-one] the “SC100 (μM)” value was “+ (+ means >1 uM)”.
With `Cc1ccn(-c2cc(S(=O)(=O)N3CCC(F)(F)CC3)cc(N3CCOCC3)n2)n1` [NSSy6489, 4-(4-((4,4-difluoropiperidin-1-yl)sulfonyl)-6-(3-methyl-1H-pyrazol-1-yl)pyridin-2-yl)morpholine] the “SC100 (μM)” value was “+ (+ means >1 uM)”.
`Cc1csc(-c2cc(OCc3cn(C)nn3)cc(NC3CCC(F)(F)CC3)n2)n1` [NSSy5680] was tested, and the “SC100 (μM)” value was “+++ (+++ means <200 nM)”.
`Cc1ccn(-c2nc(NC3CCC(F)(F)CC3)cc(OCC(F)(F)F)n2)n1` [IN11054-011-P1] was tested, and the “SC100 (μM)” value was “+ (+ means >1 uM)”.
In the case of `Cc1cc(C)n(-c2nc(NC3CCC(F)(F)CC3)cc(C(O)c3ccccc3)n2)n1` (stereo not drawn) [IN10987-030-P1], the “SC100 (μM)” value is reported as “+ (+ means >1 uM)”.
`CNc1cc(NC2CCC(F)(F)CC2)nc(-c2nc(C)cs2)c1` [IN11063-096-P1, N2-(4,4-difluorocyclohexyl)-N4-methyl-6-(4-methylthiazol-2-yl)pyridine-2,4-diamine] was tested, and the “SC100 (μM)” value was “++ (++ means 200 nM-1000 nM)”.
`COC(=O)N1CCC(c2cc(-n3ccc(C)n3)nc(NC3CCC(F)(F)CC3)n2)CC1` [NSSy6981, methyl 4-(2-((4,4-difluorocyclohexyl)amino)-6-(3-methyl-1H-pyrazol-1-yl)pyrimidin-4-yl)piperidine-1-carboxylate] was tested, and the “SC100 (μM)” value was “+++ (+++ means <200 nM)”.
For `Cc1csc(-c2nc(C)cc(NC3CCC(F)(F)CC3)n2)c1` [IN11239-029-P1, N-(4,4-difluorocyclohexyl)-6-methyl-2-(4-methylthiophen-2-yl)pyrimidin-4-amine], the “SC100 (μM)” value was “+ (+ means >1 uM)”.
For `CCC1CN(c2cc(NC3CCC(F)(F)CC3)nc(-c3nc(C)cs3)n2)CCO1` (stereo not drawn) [IN10880-018-P1], the “SC100 (μM)” value was “++ (++ means 200 nM-1000 nM)”.
For `CSc1cc(NC2CCC(F)(F)CC2)nc(-c2nc(C)cs2)c1` [IN11147-026-P1, N-(4,4-difluorocyclohexyl)-6-(4-methylthiazol-2-yl)-4-(methylthio)pyridin-2-amine], the “SC100 (μM)” value was “+++ (+++ means <200 nM)”.
With `COc1cc(NC2CC(F)(F)C2)nc(-n2nc(C)cc2C)n1` [IN11108-018-P1] the “SC100 (μM)” value was “+ (+ means >1 uM)”.
In the case of `Fc1cnn(-c2nc(NC3CCC(F)(F)CC3)cc(N3CCOCC3)n2)c1` [IN11030-013-P1, N-(4,4-difluorocyclohexyl)-2-(4-fluoro-1H-pyrazol-1-yl)-6-morpholinopyrimidin-4-amine], the “SC100 (μM)” value is reported as “+ (+ means >1 uM)”.
For `COCc1cc(NC2CCC(F)(F)CC2)nc(-c2nc(C3CC3)cs2)n1` [IN11147-077-P1, 2-(4-cyclopropylthiazol-2-yl)-N-(4,4-difluorocyclohexyl)-6-(methoxymethyl)pyrimidin-4-amine], the “SC100 (μM)” value was “++ (++ means 200 nM-1000 nM)”.
With `FC1(F)CCC(Nc2cc(N3CCOCC3)nc(-c3ccco3)n2)CC1` [IN10971-060-P1, N-(4,4-difluorocyclohexyl)-2-(furan-2-yl)-6-morpholinopyrimidin-4-amine] the “SC100 (μM)” value was “+ (+ means >1 uM)”.
In the case of `Cc1csc(-c2nc(C#N)cc(NC3CCC(F)(F)CC3)n2)n1` [IN10880-029-P1], the “SC100 (μM)” value is reported as “+ (+ means >1 uM)”.
`Cc1csc(-c2cc(N3CCN4C(=O)OC[C@H]4C3)cc(NC3CCC(F)(F)CC3)n2)n1` [NSSy5838] was tested, and the “SC100 (μM)” value was “+++ (+++ means <200 nM)”.
`FC1(F)CCC(Nc2cc(N3CCOCC3)nc(-n3ccc(Br)n3)n2)CC1` [NSSy7021] was tested, and the “SC100 (μM)” value was “+++ (+++ means <200 nM)”.
For `COc1cc(NC2CCC(F)(F)CC2)nc(-n2ccc(C)n2)c1` [IN11054-054-P1, N-(4,4-difluorocyclohexyl)-4-methoxy-6-(3-methyl-1H-pyrazol-1-yl)pyridin-2-amine], the “SC100 (μM)” value was “++ (++ means 200 nM-1000 nM)”.
In the case of `Cc1ccn(-c2cc(N3CC4(CCC4)C3)nc(NC3CCC(F)(F)CC3)n2)n1` [NSSy6580], the “SC100 (μM)” value is reported as “+ (+ means >1 uM)”.
